From patent US20040220081A1, “Nanoparticulate bioactive agents” (Spherics, Inc., priority 2002, published 2004)

Key:
[1] = Electron microscopy of precipitated particles of other drugs; type: physicochemical; conditions: 3% drug in dichloromethane precipitated in 100 vol. pentane, needles
Source text: In other experiments, 3% of the drug carbamazepine in dichloromethane was precipitated in 100 vol. of pentane. By electron microscopy, the particles were predominantly needles, about 1 micron in diameter by 50 microns in length. A few 1 micron spherical particles were also observed. A similar experiment using the drug itraconazole produced generally spherical particles in the range of about 0.1 to 0.5 microns diameter, by electron microscopy.

[2] = in vivo; conditions: rat

particle diameter [1] | particle length [1] | bioavailability [2] | Structure (SMILES)
about 1 micron | ~50 microns |  | NC(=O)N1c2ccccc2C=Cc2ccccc21 [carbamazepine]
 |  | 0.7% | CC(=O)O[C@H]1C(=O)[C@@]2(C)[C@H]([C@H](OC(=O)c3ccccc3)[C@]3(O)C[C@H](OC(=O)[C@H](O)[C@@H](NC(=O)c4ccccc4)c4ccccc4)C(C)=C1C3(C)C)[C@]1(OC(C)=O)CO[C@@H]1C[C@@H]2O [(e), paclitaxel]
